From article PMC3192407, “Both Basic and Acidic Amino Acid Residues of IpTxa Are Involved in Triggering Substate of RyR1” (Journal of Biomedicine and Biotechnology, 2011)
Like-named read-outs stand apart in the source and are kept apart here. Bridge positions count the residues as written; N and C are the ends. Peptide text beside a SMILES is read from it.

Tests used:
[1] = system: RyR1; details: cited from earlier work
Description: Imperatoxin A (IpTxa) from the African scorpion Pandinus imperator is a high-affinity modulator of skeletal RyR (RyR1). […] Stretches of these positively charged residues tend to adopt different secondary structures such as α-helical structure for Peptide A and β-sheet structure for IpTxa and MCa. However, their orientation on the surface of the peptides could be similar. […] Two toxins induced different degree of substate of RyR1 at +40 mV holding potential (28% and 48% of full conductance state for IpTxa and MCa, resp.). […] Thus, the di ...

[2] = system: RyR1; details: ref [16], [18]; cited from earlier work
Description: Imperatoxin A (IpTxa) from the African scorpion Pandinus imperator is a high-affinity modulator of skeletal RyR (RyR1). […] The inconsistency between occurrence of substate and ryanodine binding to RyR1 affected by K8A or T ...

[3] = target: T1, purified rabbit RyR1 (Oryctolagus cuniculus, UniProt P11716); assay: Planar lipid bilayer single-channel recording, purified RyR1; format: biochemical; details: for EC50 for Psubstate compared with wild type (in words): purified RyR1, 6-100 nM; for EC50: purified RyR1, toxin cis, 6-100 nM, -30 mV, 10 μM Ca^2+, Hill fit, means ± SE of 4–10 experiments, read-out: EC50 for Psubstate
T1 construct: we added IpTxa to purified RyR1 incorporated into planar lipid bilayers; from tissue; host or cells: rabbit skeletal muscle (inferred; purified from HSR)
Description: (§1) Single-channel recordings of rabbit skeletal RyR1 incorporated into planar lipid bilayers were carried out as described previously. Lipid bilayers, consisting of brain tissue phosphatidylethanolamine and phosphatidylserine (1 : 1) in decane (20 mg/mL) were formed across a hole of approximately 200 μm diameter. Thinning of the bilayer was monitored by bilayer capacitance. The basic composition of the cis/trans solution consisted of 300 mM cesium methanesulfonate, 10 mM Tris/Hepes (pH 7.2), 2 mM EGTA, and 1.998 mM CaCl2 ([Ca^2+]free = 10 μM). [Ca^2+]free was calculated using the “Chelator” program (Theo Schoenmaker). Cs^+ was selected as the charge carrier to ensure precise control of free [Ca^2+], to increase the channel conductance, and to avoid any contribution from potassium channels present in the SR membrane. Chloride channels were inhibited by using the impermeant anion methanesulfonate. Incorporation of ion channels was carried out as described by Miller and Racker and confirmed by recording the characteristically high single-channel conductance of RyRs. The trans side was maintained at ground and the cis side was clamped at −30 mV relative to the ground. After addition of the IpTxa to the cis chamber, the single channel data were collected at −30 mV for 2–5 min. […] Recordings were filtered with an 8-pole low-pass Bessel filter at 1 kHz and digitalized through a Digidata 1200 series interface (Axon Instruments). Data acquisition and analysis were done with the Axon Instruments software, pClamp v7.0.
(§2) Data were analyzed using the Hill equation described previously:
(§3) (1) Psubstate=(Psubstate, max )/[1+(EC50/[IpTxa])^nH] orPo=(Po, max )/[1+(EC50/[IpTxa])^nH], where (Po, max ) is the Po observed at saturating concentrations of IpTxa, EC50 is the IpTxa concentration for which 50% of Po, max is obtained and nH is the Hill coefficient. Also, Psubstate, max is the Psubstate observed at saturating concentrations of IpTxa, EC50 is the IpTxa concentration for which 50% of Psubstate, max is obtained, and nH is the Hill coefficient. The probability of full open state of the channel (Po) was defined as the ratio of the time spent in the open state to the total time exclusive of time spent in the substate. The probability to obtain substate (Psubstate) was calculated as the time spent in the substate divided by a given total recording time. The durations of the substate were obtained by manual positioning of the cursors and constructing all point histograms. Mean duration of substate was measured by total substate time divided by total substate frequencies.
(§4) Results are given as means ± SE. Significant differences were analyzed using Student's t-test. Differences were considered to be significant when P < 0.05. The fitting of the data to the graphs were carried out using the software, Origin v7.
To determine whether the activation of native RyR1 in SR by IpTxa was due to a direct activation of RyR1 or due to an indirect activation through other proteins associated to RyR1, we added IpTxa to purified RyR1 incorporated into planar lipid bilayers (Figure 3(a)). […] Purity of RyR1 at the final purification step was verified by Coomassie blue staining (Supplementary Figure 2).
Figure 3 Effects of IpTxa on purified rabbit RyR1 incorporated in planar lipid bilayers. (a) Single channel activity of purified RyR1 incorporated in planar lipid bilayers at 10 μM Ca^2+ with or without IpTxa (6–100 nM) was recorded. Single channel currents are shown as downward deflections from the closed level (indicated by c). The holding potential was −30 mV. (b) The plot of Po of purified RyR1 versus various concentrations of IpTxa is shown. (c) The plot of Psubstate of purified RyR1 versus various concentrations of IpTxa is shown. The results are shown as the means ± SE for 7 experiments. […]

[4] = target: T2, rabbit skeletal RyR1 (native RyR1 in HSR) (Oryctolagus cuniculus, UniProt P11716); assay: Planar lipid bilayer single-channel recording, native RyR1 in HSR; format: biochemical; details: -30 mV
T2 construct: tested using native RyR1 in rabbit skeletal HSR; from tissue; host or cells: rabbit fast-twitch back and leg muscles (heavy SR vesicles)
Description: A heavy fraction of fragmented SR vesicles (HSR) containing junctional SR was prepared from rabbit fast-twitch back and leg muscles as described previously.
as §1, §2, §3, §4
To examine how IpTxa modifies RyR1 activity, RyR1 in HSR incorporated in planar lipid bilayers was tested in the presence or absence of synthetic wild-type IpTxa. The chamber solutions for both cis (cytosolic) and trans (luminal) sides included 300 mM cesium methanesulfonate and 10 mM Tris-Hepes (pH 7.2). 10 μM free Ca^2+ was added to the cis side to activate the incorporated RyR1. After an addition of IpTxa to the cis chamber, the single channel gating properties were recorded at a holding potential of −30 mV for over 2 min at each toxin concentration. […] To examine the effects of IpTxa on full open state, we calculated the probability to obtain the full open state (Po) as the time spent in the open state divided by the total time exclusive of the time spent in the substate. The time for recorded Po was in the range of 30 s–2 min. […] The steady-state Po was 0.18 ± 0.02 at 10 μM Ca^2+. […]

[5] = target: rabbit skeletal ryanodine receptor (RyR1) (rabbit) (UniProt P11716)
[6] = native RyR1 in SR, toxin cis, 6-100 nM, [Ca^2+]free 10 μM, pH 7.2, Hill fit, means ± SE of 3–9 experiments, read-out: EC50 for Psubstate

T2 sequence (P11716 whole entry): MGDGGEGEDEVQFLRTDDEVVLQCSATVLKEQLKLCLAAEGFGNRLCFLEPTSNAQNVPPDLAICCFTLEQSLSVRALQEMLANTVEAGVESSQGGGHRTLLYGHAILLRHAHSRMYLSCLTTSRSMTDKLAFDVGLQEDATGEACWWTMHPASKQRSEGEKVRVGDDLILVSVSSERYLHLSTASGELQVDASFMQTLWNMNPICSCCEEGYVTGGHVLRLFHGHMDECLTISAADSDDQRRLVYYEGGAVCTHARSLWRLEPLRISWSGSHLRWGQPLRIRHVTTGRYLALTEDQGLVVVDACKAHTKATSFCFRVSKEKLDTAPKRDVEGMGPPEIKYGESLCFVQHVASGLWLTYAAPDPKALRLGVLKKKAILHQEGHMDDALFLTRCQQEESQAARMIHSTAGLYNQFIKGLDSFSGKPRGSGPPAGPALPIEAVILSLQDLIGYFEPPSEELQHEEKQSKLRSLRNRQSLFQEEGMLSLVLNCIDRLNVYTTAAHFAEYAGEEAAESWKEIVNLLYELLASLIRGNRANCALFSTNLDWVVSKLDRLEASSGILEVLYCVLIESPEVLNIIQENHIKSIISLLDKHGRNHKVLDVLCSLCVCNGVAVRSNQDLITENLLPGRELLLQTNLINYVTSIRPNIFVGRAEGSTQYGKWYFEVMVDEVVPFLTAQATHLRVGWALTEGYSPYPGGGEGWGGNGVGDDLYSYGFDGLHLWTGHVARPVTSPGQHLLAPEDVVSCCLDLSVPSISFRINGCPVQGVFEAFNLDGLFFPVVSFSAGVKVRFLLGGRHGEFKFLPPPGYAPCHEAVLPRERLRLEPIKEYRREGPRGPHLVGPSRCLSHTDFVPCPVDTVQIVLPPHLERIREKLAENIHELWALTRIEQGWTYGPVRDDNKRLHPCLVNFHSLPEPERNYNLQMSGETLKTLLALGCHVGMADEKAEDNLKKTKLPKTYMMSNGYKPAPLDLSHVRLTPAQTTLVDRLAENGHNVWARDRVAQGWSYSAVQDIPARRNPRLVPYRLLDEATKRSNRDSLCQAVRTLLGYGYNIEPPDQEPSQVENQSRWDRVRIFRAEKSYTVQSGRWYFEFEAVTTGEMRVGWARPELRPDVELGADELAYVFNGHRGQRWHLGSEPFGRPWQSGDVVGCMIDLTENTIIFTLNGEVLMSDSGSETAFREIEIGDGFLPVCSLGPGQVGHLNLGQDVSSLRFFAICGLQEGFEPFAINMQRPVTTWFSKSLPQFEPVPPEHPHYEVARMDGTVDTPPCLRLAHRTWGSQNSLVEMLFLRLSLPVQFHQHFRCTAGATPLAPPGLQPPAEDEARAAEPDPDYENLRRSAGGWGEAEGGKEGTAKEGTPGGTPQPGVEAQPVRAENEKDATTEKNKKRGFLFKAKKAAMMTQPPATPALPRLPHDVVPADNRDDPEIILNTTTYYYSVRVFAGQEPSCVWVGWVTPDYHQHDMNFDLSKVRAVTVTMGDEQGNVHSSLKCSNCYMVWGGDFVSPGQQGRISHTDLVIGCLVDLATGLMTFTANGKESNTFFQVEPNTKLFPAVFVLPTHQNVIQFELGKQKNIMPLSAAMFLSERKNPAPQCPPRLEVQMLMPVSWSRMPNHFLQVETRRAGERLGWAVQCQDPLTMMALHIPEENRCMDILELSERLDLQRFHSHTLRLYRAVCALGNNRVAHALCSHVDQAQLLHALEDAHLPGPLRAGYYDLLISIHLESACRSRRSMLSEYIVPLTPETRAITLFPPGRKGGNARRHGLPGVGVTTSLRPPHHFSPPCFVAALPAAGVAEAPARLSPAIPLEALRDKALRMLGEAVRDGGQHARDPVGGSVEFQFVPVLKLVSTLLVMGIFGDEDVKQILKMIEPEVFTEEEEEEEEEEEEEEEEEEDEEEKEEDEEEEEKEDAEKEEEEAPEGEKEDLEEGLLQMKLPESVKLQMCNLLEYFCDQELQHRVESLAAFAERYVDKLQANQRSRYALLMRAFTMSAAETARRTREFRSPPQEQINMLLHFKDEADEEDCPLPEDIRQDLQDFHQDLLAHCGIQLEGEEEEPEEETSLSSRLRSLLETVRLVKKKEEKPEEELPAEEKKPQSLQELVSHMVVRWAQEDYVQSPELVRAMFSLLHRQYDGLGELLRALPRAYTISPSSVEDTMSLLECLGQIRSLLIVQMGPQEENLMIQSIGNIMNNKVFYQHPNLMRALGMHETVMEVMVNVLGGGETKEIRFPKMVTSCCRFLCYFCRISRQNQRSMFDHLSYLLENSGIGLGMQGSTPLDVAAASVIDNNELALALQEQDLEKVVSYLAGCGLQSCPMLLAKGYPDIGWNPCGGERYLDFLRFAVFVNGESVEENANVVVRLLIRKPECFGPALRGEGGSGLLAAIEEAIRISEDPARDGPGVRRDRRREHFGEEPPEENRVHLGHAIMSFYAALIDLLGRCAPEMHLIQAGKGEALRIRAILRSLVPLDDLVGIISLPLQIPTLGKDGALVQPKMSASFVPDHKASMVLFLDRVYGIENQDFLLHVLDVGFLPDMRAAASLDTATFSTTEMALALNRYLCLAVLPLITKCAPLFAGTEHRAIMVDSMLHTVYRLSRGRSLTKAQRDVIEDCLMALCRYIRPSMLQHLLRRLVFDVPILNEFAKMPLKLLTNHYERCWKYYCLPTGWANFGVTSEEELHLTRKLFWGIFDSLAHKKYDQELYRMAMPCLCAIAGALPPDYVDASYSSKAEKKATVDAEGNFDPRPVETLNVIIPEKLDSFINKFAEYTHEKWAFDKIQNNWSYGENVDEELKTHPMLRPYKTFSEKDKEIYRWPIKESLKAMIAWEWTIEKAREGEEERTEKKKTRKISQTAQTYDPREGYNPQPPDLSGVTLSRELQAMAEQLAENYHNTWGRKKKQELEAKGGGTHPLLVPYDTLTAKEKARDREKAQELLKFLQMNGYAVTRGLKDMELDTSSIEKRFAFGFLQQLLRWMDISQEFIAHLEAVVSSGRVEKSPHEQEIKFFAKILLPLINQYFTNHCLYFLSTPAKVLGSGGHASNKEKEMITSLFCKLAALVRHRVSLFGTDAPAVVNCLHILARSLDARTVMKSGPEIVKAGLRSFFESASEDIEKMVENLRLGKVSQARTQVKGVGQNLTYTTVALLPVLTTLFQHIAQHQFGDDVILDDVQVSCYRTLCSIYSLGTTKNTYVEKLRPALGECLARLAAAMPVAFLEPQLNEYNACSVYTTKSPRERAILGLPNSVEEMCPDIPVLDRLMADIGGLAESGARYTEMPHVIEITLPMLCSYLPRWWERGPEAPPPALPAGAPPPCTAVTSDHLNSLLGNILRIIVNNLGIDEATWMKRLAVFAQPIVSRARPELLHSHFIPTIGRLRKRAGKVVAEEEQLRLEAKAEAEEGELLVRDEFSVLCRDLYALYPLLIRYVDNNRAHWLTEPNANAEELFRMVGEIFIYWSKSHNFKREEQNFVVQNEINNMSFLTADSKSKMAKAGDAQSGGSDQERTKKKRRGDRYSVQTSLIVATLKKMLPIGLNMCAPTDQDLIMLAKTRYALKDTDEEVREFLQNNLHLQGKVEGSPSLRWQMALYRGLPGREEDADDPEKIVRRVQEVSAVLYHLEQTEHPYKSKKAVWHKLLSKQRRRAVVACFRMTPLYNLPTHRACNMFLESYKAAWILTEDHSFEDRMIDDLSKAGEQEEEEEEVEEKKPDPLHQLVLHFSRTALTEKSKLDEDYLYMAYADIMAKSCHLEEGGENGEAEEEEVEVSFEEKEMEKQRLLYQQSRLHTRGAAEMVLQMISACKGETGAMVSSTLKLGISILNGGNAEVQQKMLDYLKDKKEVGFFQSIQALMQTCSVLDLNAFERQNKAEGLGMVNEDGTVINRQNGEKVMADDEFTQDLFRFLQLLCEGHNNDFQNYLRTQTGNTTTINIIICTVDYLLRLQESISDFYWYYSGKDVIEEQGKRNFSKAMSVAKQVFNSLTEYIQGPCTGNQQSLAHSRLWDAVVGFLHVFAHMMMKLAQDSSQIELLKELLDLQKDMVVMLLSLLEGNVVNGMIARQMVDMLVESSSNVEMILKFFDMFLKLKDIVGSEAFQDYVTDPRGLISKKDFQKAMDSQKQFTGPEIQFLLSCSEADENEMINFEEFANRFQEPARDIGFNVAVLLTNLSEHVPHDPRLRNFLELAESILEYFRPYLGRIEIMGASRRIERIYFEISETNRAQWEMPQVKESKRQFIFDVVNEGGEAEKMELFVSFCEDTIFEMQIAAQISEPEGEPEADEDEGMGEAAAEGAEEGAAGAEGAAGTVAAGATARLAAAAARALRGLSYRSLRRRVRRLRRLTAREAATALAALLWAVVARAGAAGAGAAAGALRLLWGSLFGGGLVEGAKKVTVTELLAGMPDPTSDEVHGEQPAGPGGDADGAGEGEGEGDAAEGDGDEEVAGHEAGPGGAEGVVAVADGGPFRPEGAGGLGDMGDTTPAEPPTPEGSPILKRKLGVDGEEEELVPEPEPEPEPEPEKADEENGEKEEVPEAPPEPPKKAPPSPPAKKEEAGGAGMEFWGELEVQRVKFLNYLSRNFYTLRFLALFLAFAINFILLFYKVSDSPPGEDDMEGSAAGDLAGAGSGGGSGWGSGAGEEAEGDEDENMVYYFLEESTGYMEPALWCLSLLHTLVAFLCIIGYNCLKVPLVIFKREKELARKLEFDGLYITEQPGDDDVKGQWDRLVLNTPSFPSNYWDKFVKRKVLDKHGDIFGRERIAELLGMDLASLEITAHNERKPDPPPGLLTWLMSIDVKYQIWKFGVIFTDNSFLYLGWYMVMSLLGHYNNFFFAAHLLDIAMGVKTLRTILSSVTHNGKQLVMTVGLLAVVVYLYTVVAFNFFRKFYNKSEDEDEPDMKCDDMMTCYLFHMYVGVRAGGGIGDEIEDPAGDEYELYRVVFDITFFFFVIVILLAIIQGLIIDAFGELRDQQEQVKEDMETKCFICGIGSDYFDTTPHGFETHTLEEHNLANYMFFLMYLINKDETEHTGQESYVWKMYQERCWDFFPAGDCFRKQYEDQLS
T1 sequence (P11716 whole entry): as above

Compound | EC50 for Psubstate compared with wild type (in words) [3] | EC50 [3] [nM] | EC50 [4, 6] [nM] | mean duration of substate of native RyR1 in HSR at 30 nM toxin [5] [s] | other results
maurocalcine [MCa] |  |  |  |  | substate current amplitude, % of full conductance state ([1]; +40 mV holding potential, ref [10], [13]): 48%; substate current amplitude, % of full conductance ([1]; long-lasting substate of RyR1, ref [16], [18]): 48%; modification of channel gating by MCa and peptide A together (in words) ([1]; ref [16]): in an additive, but not competitive, manner; [^3H]ryanodine binding (in words) [2]: strongly enhances [^3H]ryanodine binding to RyR1
CC(C)C[C@@H]1NC(=O)[C@H](Cc2c[nH]cn2)NC(=O)[C@@H]2CCCN2C(=O)[C@H](CC(C)C)NC(=O)[C@@H](NC(=O)[C@H](CC(=O)O)NC(=O)CN)CSSC[C@@H]2NC(=O)[C@@H]3CSSC[C@@H](C(=O)N[C@@H](C)C(=O)O)NC(=O)[C@H](CCCNC(=N)N)NC(=O)[C@H](CCCCN)NC(=O)[C@H](CCC(=O)O)NC(=O)[C@H](C)NC(=O)[C@H](CC(N)=O)NC(=O)[C@H]([C@@H](C)O)NC(=O)CNC(=O)[C@H](CCCNC(=N)N)NC(=O)[C@H](CCCNC(=N)N)NC(=O)[C@H](CCCCN)NC(=O)[C@H](CSSC[C@H](NC(=O)[C@H](CCCNC(=N)N)NC(=O)[C@H](CCCCN)NC1=O)C(=O)N[C@@H](CCCCN)C(=O)N[C@@H](C)C(=O)N[C@@H](CC(=O)O)C(=O)N[C@@H](CC(N)=O)C(=O)N[C@@H](CC(=O)O)C(=O)N3)NC(=O)[C@H](CCCCN)NC(=O)[C@H](CCCCN)NC(=O)CNC2=O [R33A] (H-GDCLPHLKRCKADNDCCGKKCKRRGTNAEKRCA-OH; disulfide 3-17, 10-21, 16-32) | without a significant change of EC50 | 19.3 ± 1.05 | 16 ± 5.65 |  | 
IpTxa D2A (from UniProt P59868 1-33) (peptide) |  |  |  | 2.96 | 
IpTxa R9A (from UniProt P59868 1-33) (peptide) |  |  |  | 5.86 | 
CC(C)C[C@@H]1NC(=O)[C@H](Cc2c[nH]cn2)NC(=O)[C@@H]2CCCN2C(=O)[C@H](CC(C)C)NC(=O)[C@@H](NC(=O)[C@H](CC(=O)O)NC(=O)CN)CSSC[C@@H]2NC(=O)[C@@H]3CSSC[C@@H](C(=O)N[C@@H](CCCNC(=N)N)C(=O)O)NC(=O)[C@H](CCCNC(=N)N)NC(=O)[C@H](CCCCN)NC(=O)[C@H](CCC(=O)O)NC(=O)[C@H](C)NC(=O)[C@H](CC(N)=O)NC(=O)[C@H]([C@@H](C)O)NC(=O)CNC(=O)[C@H](CCCNC(=N)N)NC(=O)[C@H](CCCNC(=N)N)NC(=O)[C@H](CCCCN)NC(=O)[C@H](CSSC[C@H](NC(=O)[C@H](CCCNC(=N)N)NC(=O)[C@H](CCCCN)NC1=O)C(=O)N[C@@H](CCCCN)C(=O)N[C@@H](C)C(=O)N[C@@H](CC(=O)O)C(=O)N[C@@H](CC(N)=O)C(=O)N[C@@H](CC(=O)O)C(=O)N3)NC(=O)[C@H](CCCCN)NC(=O)[C@H](CCCCN)NC(=O)CNC2=O [Wild type, Imperatoxin A] (H-GDCLPHLKRCKADNDCCGKKCKRRGTNAEKRCR-OH; disulfide 3-17, 10-21, 16-32) |  | 17.1 ± 2.31 | 23.3 ± 2.37 |  | EC50 ([4]; native RyR1, toxin cis, 10 μM Ca^2+, Hill fit, means ± SE of ten experiments, read-out: EC50 for Po): 17.4 ± 4.67 nM
CC(C)C[C@@H]1NC(=O)[C@H](Cc2c[nH]cn2)NC(=O)[C@@H]2CCCN2C(=O)[C@H](CC(C)C)NC(=O)[C@@H](NC(=O)[C@H](CC(=O)O)NC(=O)CN)CSSC[C@@H]2NC(=O)[C@@H]3CSSC[C@@H](C(=O)N[C@@H](CCCNC(=N)N)C(=O)O)NC(=O)[C@H](C)NC(=O)[C@H](CCCCN)NC(=O)[C@H](CCC(=O)O)NC(=O)[C@H](C)NC(=O)[C@H](CC(N)=O)NC(=O)[C@H]([C@@H](C)O)NC(=O)CNC(=O)[C@H](CCCNC(=N)N)NC(=O)[C@H](CCCNC(=N)N)NC(=O)[C@H](CCCCN)NC(=O)[C@H](CSSC[C@H](NC(=O)[C@H](CCCNC(=N)N)NC(=O)[C@H](CCCCN)NC1=O)C(=O)N[C@@H](CCCCN)C(=O)N[C@@H](C)C(=O)N[C@@H](CC(=O)O)C(=O)N[C@@H](CC(N)=O)C(=O)N[C@@H](CC(=O)O)C(=O)N3)NC(=O)[C@H](CCCCN)NC(=O)[C@H](CCCCN)NC(=O)CNC2=O [R31A] (H-GDCLPHLKRCKADNDCCGKKCKRRGTNAEKACR-OH; disulfide 3-17, 10-21, 16-32) | without a significant change of EC50 | 18.2 ± 1.65 | 19.2 ± 4.65 |  | 
CC(C)C[C@@H]1NC(=O)[C@H](Cc2c[nH]cn2)NC(=O)[C@@H]2CCCN2C(=O)[C@H](CC(C)C)NC(=O)[C@@H](NC(=O)[C@H](CC(=O)O)NC(=O)CN)CSSC[C@@H]2NC(=O)[C@@H]3CSSC[C@@H](C(=O)N[C@@H](CCCNC(=N)N)C(=O)O)NC(=O)[C@H](CCCNC(=N)N)NC(=O)[C@H](C)NC(=O)[C@H](CCC(=O)O)NC(=O)[C@H](C)NC(=O)[C@H](CC(N)=O)NC(=O)[C@H]([C@@H](C)O)NC(=O)CNC(=O)[C@H](CCCNC(=N)N)NC(=O)[C@H](CCCNC(=N)N)NC(=O)[C@H](CCCCN)NC(=O)[C@H](CSSC[C@H](NC(=O)[C@H](CCCNC(=N)N)NC(=O)[C@H](CCCCN)NC1=O)C(=O)N[C@@H](CCCCN)C(=O)N[C@@H](C)C(=O)N[C@@H](CC(=O)O)C(=O)N[C@@H](CC(N)=O)C(=O)N[C@@H](CC(=O)O)C(=O)N3)NC(=O)[C@H](CCCCN)NC(=O)[C@H](CCCCN)NC(=O)CNC2=O [K30A] (H-GDCLPHLKRCKADNDCCGKKCKRRGTNAEARCR-OH; disulfide 3-17, 10-21, 16-32) | without a significant change of EC50 | 15.7 ± 5.99 | 16.7 ± 2.86 |  | 
Imperatoxin A (IpTxa), synthetic wild type (from UniProt P59868 1-33) (peptide) |  |  |  | 4.56 | 
